Measurements: ChEMBL document CHEMBL2429790, “Identification of 2-amino-5-aryl-pyrazines as inhibitors of human lactate dehydrogenase” (Bioorg Med Chem Lett, 2013)
In brackets after ≈: the same amount, converted by molar mass.

What was measured:
[1] = target: L-lactate dehydrogenase B chain (Homo sapiens, UniProt P07195)
[2] = target: T1, L-lactate dehydrogenase A chain (Homo sapiens, UniProt P00338); experiment: Binding affinity to human recombinant carboxy-terminal his-tagged LDHA (1 to 331) expressed in Escherichia coli by surface plasmon resonance analysis in presence of NADH
[3] = target: T1, L-lactate dehydrogenase A chain; experiment: Inhibition of human recombinant carboxy-terminal his-tagged LDHA (1 to 331) expressed in Escherichia coli using pyruvate as substrate assessed as disappearance of NADH after 10 mins by fluorescence assay
Cytochrome P450 2C19 = Cytochrome P450 2C19 (Homo sapiens, UniProt P33261); experiment: Inhibition of CYP2C19 (unknown origin) up to 10 uM; assay type: ADME
Cytochrome P450 2C19, sequence (P33261 whole entry): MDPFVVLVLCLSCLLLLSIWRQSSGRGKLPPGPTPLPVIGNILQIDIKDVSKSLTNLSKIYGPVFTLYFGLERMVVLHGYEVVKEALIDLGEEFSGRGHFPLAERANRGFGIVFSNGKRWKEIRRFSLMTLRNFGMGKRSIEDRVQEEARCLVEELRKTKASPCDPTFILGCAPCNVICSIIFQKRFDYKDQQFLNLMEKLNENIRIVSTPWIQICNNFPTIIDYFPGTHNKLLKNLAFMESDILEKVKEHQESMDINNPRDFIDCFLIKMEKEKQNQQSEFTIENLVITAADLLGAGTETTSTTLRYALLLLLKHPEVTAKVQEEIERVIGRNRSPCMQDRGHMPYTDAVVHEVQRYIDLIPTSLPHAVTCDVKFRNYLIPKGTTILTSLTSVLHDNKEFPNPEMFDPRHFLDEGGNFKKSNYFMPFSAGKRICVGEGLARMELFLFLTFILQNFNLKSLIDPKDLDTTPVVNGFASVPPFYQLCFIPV

Cytochrome P450 1A2 = target: T2, Cytochrome P450 1A2 (Homo sapiens, UniProt P05177); experiment: Inhibition of CYP1A2 (unknown origin) up to 10 uM; assay type: ADME
T2 sequence (P05177 whole entry): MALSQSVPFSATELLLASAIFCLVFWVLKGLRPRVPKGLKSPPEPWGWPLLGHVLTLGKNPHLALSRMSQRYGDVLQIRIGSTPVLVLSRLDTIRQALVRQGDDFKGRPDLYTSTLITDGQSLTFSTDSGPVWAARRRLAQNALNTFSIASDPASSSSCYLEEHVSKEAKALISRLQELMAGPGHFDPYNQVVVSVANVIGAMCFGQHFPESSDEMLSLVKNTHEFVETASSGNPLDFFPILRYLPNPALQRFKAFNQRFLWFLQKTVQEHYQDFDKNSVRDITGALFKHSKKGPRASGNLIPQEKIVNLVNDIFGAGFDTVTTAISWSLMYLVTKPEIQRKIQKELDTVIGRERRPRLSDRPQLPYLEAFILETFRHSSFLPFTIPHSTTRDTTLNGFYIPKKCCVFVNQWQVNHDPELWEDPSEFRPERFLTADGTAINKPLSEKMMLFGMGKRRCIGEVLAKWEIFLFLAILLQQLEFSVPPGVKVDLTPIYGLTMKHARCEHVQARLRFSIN

Cytochrome P450 2D6 = Cytochrome P450 2D6 (Homo sapiens, UniProt P10635); experiment: Inhibition of CYP2D6 (unknown origin) up to 10 uM; assay type: ADME
Cytochrome P450 2D6, sequence (P10635 whole entry): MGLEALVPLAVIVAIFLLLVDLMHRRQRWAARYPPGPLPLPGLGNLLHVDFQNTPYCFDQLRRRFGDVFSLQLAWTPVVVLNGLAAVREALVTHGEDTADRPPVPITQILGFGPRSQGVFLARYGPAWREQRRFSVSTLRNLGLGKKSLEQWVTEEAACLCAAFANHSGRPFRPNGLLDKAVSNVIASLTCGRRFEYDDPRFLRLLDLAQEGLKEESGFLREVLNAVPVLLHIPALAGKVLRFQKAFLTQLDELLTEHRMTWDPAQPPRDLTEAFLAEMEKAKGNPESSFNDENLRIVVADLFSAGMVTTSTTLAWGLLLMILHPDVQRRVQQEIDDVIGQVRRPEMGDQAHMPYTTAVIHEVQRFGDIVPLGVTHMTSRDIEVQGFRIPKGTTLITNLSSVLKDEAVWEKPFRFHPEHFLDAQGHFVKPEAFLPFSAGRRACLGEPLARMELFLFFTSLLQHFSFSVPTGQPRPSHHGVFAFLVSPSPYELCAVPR

Cytochrome P450 2C9 = Cytochrome P450 2C9 (Homo sapiens, UniProt P11712); experiment: Inhibition of CYP2C9 (unknown origin) up to 10 uM; assay type: ADME
Cytochrome P450 2C9, sequence (P11712 whole entry): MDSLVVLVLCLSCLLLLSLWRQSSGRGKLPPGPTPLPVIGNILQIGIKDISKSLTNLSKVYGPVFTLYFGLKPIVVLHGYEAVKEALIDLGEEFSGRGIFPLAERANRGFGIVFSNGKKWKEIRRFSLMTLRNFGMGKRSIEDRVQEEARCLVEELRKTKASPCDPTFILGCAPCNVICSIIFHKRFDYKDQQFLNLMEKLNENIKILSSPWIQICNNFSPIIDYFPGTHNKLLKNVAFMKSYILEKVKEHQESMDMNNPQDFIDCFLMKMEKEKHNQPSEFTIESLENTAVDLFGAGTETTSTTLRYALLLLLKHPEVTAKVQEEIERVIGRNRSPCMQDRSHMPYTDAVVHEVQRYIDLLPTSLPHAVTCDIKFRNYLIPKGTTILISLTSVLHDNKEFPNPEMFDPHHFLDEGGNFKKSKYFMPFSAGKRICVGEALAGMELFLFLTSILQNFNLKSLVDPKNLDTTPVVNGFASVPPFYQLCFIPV

[4] = Aqueous kinetic solubility of the compound at pH 7.4; assay type: physicochemical; conditions: read-out: Kinetic_solubility
Cytochrome P450 3A4 = Cytochrome P450 3A4 (Homo sapiens, UniProt P08684); experiment: Inhibition of CYP3A4 (unknown origin) up to 10 uM; assay type: ADME
Cytochrome P450 3A4, sequence (P08684 whole entry): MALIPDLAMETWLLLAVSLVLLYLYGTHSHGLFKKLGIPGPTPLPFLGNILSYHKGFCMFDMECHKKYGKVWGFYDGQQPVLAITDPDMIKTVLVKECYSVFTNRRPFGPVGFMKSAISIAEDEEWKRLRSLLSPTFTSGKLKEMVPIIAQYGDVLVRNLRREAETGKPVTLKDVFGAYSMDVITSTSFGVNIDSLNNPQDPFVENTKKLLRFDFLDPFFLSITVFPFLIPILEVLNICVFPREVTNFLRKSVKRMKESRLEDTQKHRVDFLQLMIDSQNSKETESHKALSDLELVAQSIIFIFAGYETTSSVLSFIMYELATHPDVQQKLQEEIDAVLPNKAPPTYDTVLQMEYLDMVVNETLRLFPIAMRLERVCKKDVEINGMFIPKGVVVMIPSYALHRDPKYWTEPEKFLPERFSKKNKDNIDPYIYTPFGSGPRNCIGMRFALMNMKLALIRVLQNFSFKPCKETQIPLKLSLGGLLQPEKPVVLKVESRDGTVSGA

[5] = Permeability across basolateral to apical side in MDCK cells; assay type: ADME, cell-based, Canis lupus familiaris; conditions: dog, read-out: permeability
[6] = Plasma protein binding in rat at 5 uM after 4 hrs by equilibrium dialysis method; assay type: ADME, cell-free; conditions: read-out: PPB (converted)
[7] = Permeability across apical to basolateral side in MDCK cells; assay type: ADME, cell-based, Canis lupus familiaris; conditions: dog, read-out: permeability
[8] = Plasma protein binding in human at 5 uM after 4 hrs by equilibrium dialysis method; assay type: ADME, cell-free; conditions: read-out: PPB
[9] = target: T1, L-lactate dehydrogenase A chain; experiment: Binding affinity to human recombinant carboxy-terminal his-tagged LDHA (1 to 331) expressed in Escherichia coli by surface plasmon resonance analysis in absence of NADH
[10] = Cytotoxicity against human MCF7-neo/Her2 cells assessed as cell viability at 50 uM by Sytox Green/Hoescht 33342 staining assay; assay type: cell-based
[11] = Oral bioavailability in Sprague-Dawley rat at 1.5 mg/kg; assay type: ADME, organism-based; conditions: in vivo
[12] = Half life in Sprague-Dawley rat at 1.5 mg/kg, po and 0.5 mg/kg, iv; assay type: ADME, organism-based; conditions: in vivo
[13] = AUC (infinity) in Sprague-Dawley rat at 1.5 mg/kg, po; assay type: ADME, organism-based; parameters: time infinity, dose 1.5 mg/kg, route oral; conditions: plasma
[14] = Cmax in Sprague-Dawley rat at 0.5 mg/kg, iv; assay type: ADME, organism-based; parameters: dose 0.5 mg/kg, route intravenous; conditions: in vivo
[15] = Volume of distribution in Sprague-Dawley rat at 1.5 mg/kg, po and 0.5 mg/kg, iv; assay type: ADME, organism-based; conditions: in vivo
[16] = Plasma clearance in Sprague-Dawley rat at 1.5 mg/kg, po and 0.5 mg/kg, iv; assay type: ADME, organism-based

L-lactate dehydrogenase B chain, sequence (P07195 whole entry): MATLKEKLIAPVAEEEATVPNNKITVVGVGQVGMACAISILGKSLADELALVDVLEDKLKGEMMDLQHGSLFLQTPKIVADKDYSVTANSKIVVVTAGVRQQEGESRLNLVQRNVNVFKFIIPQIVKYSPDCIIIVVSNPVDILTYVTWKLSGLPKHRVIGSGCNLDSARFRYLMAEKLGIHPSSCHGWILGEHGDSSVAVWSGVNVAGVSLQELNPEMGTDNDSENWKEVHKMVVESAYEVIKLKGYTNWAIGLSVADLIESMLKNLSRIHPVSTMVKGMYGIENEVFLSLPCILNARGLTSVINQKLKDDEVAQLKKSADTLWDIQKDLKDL

Row | Structure (SMILES) | IC50 [1] [µM] | Kd [2] [µM] | IC50 [3] [µM] | other results
1 | C[C@@H](Nc1nc(-c2csc(C(=O)O)c2)cnc1N)c1ccccc1 | > 100 | 33 | 50 | –
2 | CC(C)c1ccc(C(=O)O)cc1-c1cnc(N)c(N[C@H](C)c2ccccc2)n1 | 7 | 5 | 2 | –
3 | C[C@@H](Nc1nc(-c2ccnc(C(=O)O)c2)cnc1N)c1ccccc1 | – | 32 | 24 | –
4 | Cc1c(C(=O)O)cccc1-c1cnc(N)c(N[C@H](C)c2ccccc2)n1 | – | > 100 | 35 | –
5 | C[C@@H](Nc1nc(-c2ccccc2C(=O)O)cnc1N)c1ccccc1 | > 100 | > 100 | > 100 | –
6 | C[C@@H](Nc1nc(-c2cccc(C(=O)O)c2)cnc1N)C1CCCCC1 | – | 7 | 3 | –
7 | Nc1ncc(-c2cccc(C(=O)O)c2)nc1NCC1CCCC1 | – | 18 | 19 | –
8 | Cc1ccc(C(=O)O)cc1-c1cnc(N)c(N[C@H](C)c2ccccc2)n1 | 6 | 3 | 2 | –
9 | C[C@@H](Nc1nc(-c2cccc(C(=O)NS(C)(=O)=O)c2)cnc1N)c1ccccc1 | > 100 | > 100 | > 100 | –
10 | Cc1ccc(-c2cnc(N)c(N[C@H](C)c3ccccc3)n2)cc1C(=O)O | – | 29 | 15 | –
11 | Cc1cc(C(=O)O)cc(-c2cnc(N)c(N[C@H](C)c3ccccc3)n2)c1 | 7 | 7 | 4 | –
12 | Nc1ncc(-c2cccc(C(=O)O)c2)nc1NCc1ccccc1 | – | 22 | 12 | –
13 | C[C@@H](Nc1nc(-c2cccc(C(=O)O)c2)cnc1NS(C)(=O)=O)c1ccccc1 | > 100 | – | 71 | –
14 | C[C@@H](Nc1nc(-c2cccc(C(=O)O)c2)cnc1N)c1ccc(Cl)cc1 | 5 | 5 | 2 | –
15 | C[C@@H](Nc1nc(-n2cc(C(=O)O)cn2)cnc1N)c1ccccc1 | 15 | – | 15 | –
16 | COc1ccc(C(=O)O)cc1-c1cnc(N)c(N[C@H](C)c2ccccc2)n1 | 7 | 3 | 2 | –
17 | Cc1ccc(C(=O)O)cc1-c1cnc(N)c(N[C@H](C)c2ccc(Cl)cc2)n1 | – | – | 0.5 | Activity [10]: Non-toxic; bioavailability [11]: 41%; half-life [12]: 2.8 h; AUC(0-inf) [13]: 0.55 µM·h; Cmax [14]: 2100 nM; Vd [15]: 1.4 L/kg; clearance [16]: 60 mL/min/kg; inhibition (INH) (Cytochrome P450 2C19): Not Active; inhibition (INH) (Cytochrome P450 1A2): Not Active; inhibition (INH) (Cytochrome P450 2D6): Not Active; inhibition (INH) (Cytochrome P450 2C9): Not Active; solubility kinetic [4]: 81 µM (≈ 31 µg/mL); inhibition (INH) (Cytochrome P450 3A4): Not Active; Papp B→A [5]: 10.3 ×10⁻⁶ cm/s; fraction unbound at 4 h, 5 µM [6]: 0.01; Papp A→B [7]: 12.1 ×10⁻⁶ cm/s; fraction unbound at 4 h, 5 µM [8]: < 0.01
18 | C[C@@H](Nc1nc(-c2ccc(C(=O)O)c(O)c2)cnc1N)c1ccccc1 | – | – | 10 | –
19 | COCCNc1nc(-c2cccc(C(=O)O)c2)cnc1N | – | > 100 | > 100 | –
20 | C[C@@H](Nc1nc(-c2cc(C(=O)O)ccc2Cl)cnc1N)c1ccccc1 | 8 | 5 | 2 | –

Further lines, with some results ahead:

Row | IC50 [1] [µM] | Kd [2] [µM] | IC50 [3] [µM] | Structure (SMILES) | other results
21 | – | > 100 | > 100 | C[C@@H](Nc1nc(-c2cccc(C(N)=O)c2)cnc1N)c1ccccc1 | –
22 | – | > 100 | > 100 | C[C@H](Nc1nc(-c2cccc(C(=O)O)c2)cnc1N)c1ccccc1 | –
23 | > 100 | – | > 100 | CC(=O)Nc1ncc(-c2cccc(C(=O)O)c2)nc1N[C@H](C)c1ccccc1 | –
24 | – | 29 | 18 | C[C@@H](Nc1cc(-c2cccc(C(=O)O)c2)cnc1N)c1ccccc1 | –
25 | – | 7 | 4 | C[C@@H](Nc1nc(-c2cccc(C(=O)O)c2)cnc1N)c1ccccc1 | inhibition (INH) (Cytochrome P450 2C19): Not Active; inhibition (INH) (Cytochrome P450 1A2): Not Active; inhibition (INH) (Cytochrome P450 2D6): Not Active; inhibition (INH) (Cytochrome P450 2C9): Not Active; solubility kinetic [4]: 137 µM (≈ 45.8 µg/mL); inhibition (INH) (Cytochrome P450 3A4): Not Active; Papp B→A [5]: 4 ×10⁻⁶ cm/s; fraction unbound at 4 h, 5 µM [6]: 0.04; Papp A→B [7]: 9.6 ×10⁻⁶ cm/s; fraction unbound at 4 h, 5 µM [8]: 0.01; Kd [9]: 857 µM
26 | – | > 100 | 25 | C[C@@H](Nc1cncc(-c2cccc(C(=O)O)c2)n1)c1ccccc1 | –
27 | – | > 100 | > 100 | C[C@@H](Nc1nc(-c2cccc(C(=O)O)c2)ccc1N)c1ccccc1 | –
28 | > 100 | > 100 | 73 | CNc1ncc(-c2cccc(C(=O)O)c2)nc1N[C@H](C)c1ccccc1 | –
29 | – | > 100 | > 100 | CCOC(=O)c1cccc(-c2cnc(N)c(N[C@H](C)c3ccccc3)n2)c1 | –
30 | > 100 | > 100 | 91 | Cc1nc(N)c(N[C@H](C)c2ccccc2)nc1-c1cccc(C(=O)O)c1 | –
31 | – | – | 14 | C[C@@H](Nc1nc(-c2ccc(C(=O)O)cc2)cnc1N)c1ccccc1 | –
32 | > 100 | > 100 | > 100 | C[C@@H](Oc1nc(-c2cccc(C(=O)O)c2)cnc1N)c1ccccc1 | –
33 | > 100 | > 100 | > 100 | C[C@@H](Nc1nc(-c2cccc(C(=O)O)c2)cnc1O)c1ccccc1 | –
34 | – | > 100 | > 100 | C[C@H](c1ccccc1)N(C)c1nc(-c2cccc(C(=O)O)c2)cnc1N | –
